Results: ChEMBL document CHEMBL1126886, “Synthesis of 5-methyl-5-deaza nonclassical antifolates as inhibitors of dihydrofolate reductases and as potential antipneumocystis, antitoxoplasma, and antitumor agents” (J Med Chem, 1993)

Experiments:
Dihydrofolate reductase [1] = biological target: T1, Dihydrofolate reductase (Rattus norvegicus, UniProt Q920D2)
T1 sequence (Q920D2 whole entry): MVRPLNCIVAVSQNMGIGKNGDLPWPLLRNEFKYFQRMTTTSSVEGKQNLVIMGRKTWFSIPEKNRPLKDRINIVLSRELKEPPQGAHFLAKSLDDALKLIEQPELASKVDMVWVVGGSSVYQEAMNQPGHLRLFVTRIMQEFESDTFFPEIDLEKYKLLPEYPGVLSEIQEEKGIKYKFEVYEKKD
Description: Inhibition of rat liver dihydrofolate reductase

Dihydrofolate reductase [2] = biological target: T2, Dihydrofolate reductase (Pneumocystis carinii, UniProt P16184)
T2 sequence (P16184 whole entry): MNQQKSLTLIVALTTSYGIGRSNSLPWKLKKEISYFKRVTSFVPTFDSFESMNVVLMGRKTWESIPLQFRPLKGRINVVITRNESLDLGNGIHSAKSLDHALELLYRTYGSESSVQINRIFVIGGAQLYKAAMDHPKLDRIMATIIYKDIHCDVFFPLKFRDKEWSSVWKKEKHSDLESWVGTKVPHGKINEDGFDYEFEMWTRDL
Description: Inhibition of Pneumocystis carinii dihydrofolate reductase

HCT-116 = experiment: Inhibitory concentration required to decrease cell viability in cell growth culture against colon carcinoma cells HCT116; format: functional, cell-based; conditions: Homo sapiens
CCRF-CEM = experiment: Inhibitory concentration required to decrease cell viability in cell growth culture against leukemia cells CCRF-CEM; format: functional, cell-based; conditions: Homo sapiens
ACHN = experiment: Inhibitory concentration required to decrease cell viability in cell growth culture against kidney cells ACHN; format: functional, cell-based; conditions: Homo sapiens
Toxoplasma gondii [3] = experiment: Inhibitory concentration of Toxoplasma gondii cells in human embryonic lung cells with minimum essential medium; inactive; format: functional, organism-based
[4] = Inhibitory concentration required to decrease cell viability in cell growth culture against melanoma SK5 MeI; format: functional; conditions: Homo sapiens
[5] = biological target: T3, Bifunctional dihydrofolate reductase-thymidylate synthase (Toxoplasma gondii, UniProt Q07422); experiment: Inhibition of Toxoplasma gondii dihydrofolate reductase
T3 sequence (Q07422 whole entry): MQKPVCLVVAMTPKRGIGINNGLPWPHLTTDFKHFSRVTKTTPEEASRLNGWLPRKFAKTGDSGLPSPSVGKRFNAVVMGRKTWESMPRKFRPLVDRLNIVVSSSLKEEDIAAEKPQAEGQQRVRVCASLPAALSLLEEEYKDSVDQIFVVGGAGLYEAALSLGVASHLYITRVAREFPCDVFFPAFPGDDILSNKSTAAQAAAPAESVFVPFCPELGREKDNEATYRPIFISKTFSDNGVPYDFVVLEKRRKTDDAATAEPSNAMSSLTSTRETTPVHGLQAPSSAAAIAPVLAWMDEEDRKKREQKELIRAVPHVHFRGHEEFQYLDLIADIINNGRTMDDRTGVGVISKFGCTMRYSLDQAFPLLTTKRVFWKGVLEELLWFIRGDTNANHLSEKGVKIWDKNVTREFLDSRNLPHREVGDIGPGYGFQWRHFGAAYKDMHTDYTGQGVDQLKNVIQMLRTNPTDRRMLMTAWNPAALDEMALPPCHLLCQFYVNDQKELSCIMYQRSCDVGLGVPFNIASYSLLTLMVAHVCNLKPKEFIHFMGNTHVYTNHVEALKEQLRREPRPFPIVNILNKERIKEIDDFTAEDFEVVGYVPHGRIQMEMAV

MCF7S = experiment: Inhibitory concentration required to decrease cell viability in cell growth culture against breast carcinoma cells MCF-7; format: functional, cell-based; conditions: Homo sapiens
Dihydrofolate reductase [6] = biological target: T1, Dihydrofolate reductase; experiment: Inhibitory concentration against rat liver dihydrofolate reductases
Pneumocystis carinii [7] = experiment: Inhibitory concentration against Pneumocystis carinii cells in human embryonic lung fibrobalstic cell culture with MEM at 1 ug/mL; format: functional, organism-based
Dihydrofolate reductase [8] = biological target: T4, Dihydrofolate reductase (Lactobacillus casei, UniProt P00381); experiment: Inhibitory concentration against Lactobacillus casei dihydrofolate reductase; design: species or system Lacticaseibacillus casei
T4 sequence (P00381 whole entry): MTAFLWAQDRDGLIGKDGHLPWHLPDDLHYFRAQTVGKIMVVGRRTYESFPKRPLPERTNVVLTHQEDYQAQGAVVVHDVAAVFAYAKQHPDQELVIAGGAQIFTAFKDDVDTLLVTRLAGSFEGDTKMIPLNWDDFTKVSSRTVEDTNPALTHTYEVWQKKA

Pneumocystis carinii [9] = experiment: (§1) Inhibitory concentration against Pneumocystis carinii cells in human embryonic lung fibrobalstic cell culture with MEM at 10 ug/mL; format: functional, organism-based
Toxoplasma gondii [10] = experiment: Inhibitory concentration of Toxoplasma gondii cells in human embryonic lung cells with minimum essential medium; format: functional, organism-based
Pneumocystis carinii [11] = experiment: as §1
Dihydrofolate reductase [12] = biological target: T4, Dihydrofolate reductase; experiment: (§2) Inhibitory concentration against Lactobacillus casei; design: species or system Lacticaseibacillus casei
Pneumocystis carinii [13] = experiment: microbe, parasite or virus in culture
Description: Inhibitory concentration against Pneumocystis carinii cells in human embryonic lung fibrobalstic cell culture with MEM at 250 ug/mL

Pneumocystis carinii [14] = experiment: Inhibitory concentration against Pneumocystis carinii cells in human embryonic lung fibrobalstic cell culture with MEM at 50 ug/mL
Lacticaseibacillus casei = experiment: as §2; format: functional, organism-based

Structure (SMILES)	IC50 (Dihydrofolate reductase [1])	IC50 (Dihydrofolate reductase [2])	IC50 (HCT-116)	IC50 (CCRF-CEM)	IC50 (ACHN)	IC50 [4]	IC50 [5]	IC50 (MCF7S)	other results
COc1cc(N(C=O)CC2=CNc3nc(N)nc(N)c3C2C)cc(OC)c1OC (stereo unspecified)	> 2600 nM	> 2600 nM	–	–	–	–	–	–	–
COc1cc(N(C=O)Cc2cnc3nc(N)nc(N)c3c2C)cc(OC)c1OC	110 nM	550 nM	> 112000 nM	610 nM	> 112000 nM	> 112000 nM	13 nM	> 100000 nM	IC50 (Toxoplasma gondii [3]): Not Active
Cc1c(CN(C=O)c2ccc(Cl)c(Cl)c2)cnc2nc(N)nc(N)c12	–	510 nM	16000 nM	210 nM	91400 nM	25100 nM	83 nM	106000 nM	IC50 (Dihydrofolate reductase [6]): 140 nM
COc1cc(N(C=O)CC2CNc3nc(N)nc(N)c3C2C)cc(OC)c1OC (stereo unspecified)	> 1200 nM	> 1200 nM	–	–	–	–	–	–	–
COc1cc(NCc2cnc3nc(N)nc(N)c3c2C)cc(OC)c1OC.O=C(O)[C@H]1O[C@H](O)[C@H](O)[C@@H](O)[C@@H]1O	–	–	–	–	–	–	–	–	% inhibition (Pneumocystis carinii [7]): 2%
COc1cc(NCc2cnc3nc(N)nc(N)c3c2C)cc(OC)c1OC	2.1 nM	–	71700 nM	130 nM	> 100000 nM	> 100000 nM	–	> 100000 nM	IC50 (Dihydrofolate reductase [8]): 22 nM; % inhibition (Pneumocystis carinii [9]): 77%; IC50 (Toxoplasma gondii [10]): 23000 nM; % inhibition (Pneumocystis carinii [7]): 56%
COc1cc(NCc2cnc3nc(N)nc(N)c3c2C)cc(OC)c1OC.O=C(O)[C@H]1OC(O)[C@H](O)[C@@H](O)[C@@H]1O	–	–	–	–	–	–	–	–	% inhibition (Pneumocystis carinii [11]): 57%
Cc1c(CN(C=O)c2cc(Cl)c(Cl)c(Cl)c2)cnc2nc(N)nc(N)c12	250 nM	520 nM	–	30 nM	–	–	94 nM	–	–
Cc1c(CNc2cc(Cl)c(Cl)c(Cl)c2)cnc2nc(N)nc(N)c12	33 nM	63 nM	–	200 nM	–	–	12 nM	> 100000 nM	–
COc1cc(NCC2CNc3nc(N)nc(N)c3C2C)cc(OC)c1OC (stereo unspecified)	3700 nM	> 3700 nM	–	–	–	–	–	–	–
COc1cc(N(C)Cc2cnc3nc(N)nc(N)c3c2C)cc(OC)c1OC	7.6 nM	–	37900 nM	20 nM	> 100000 nM	> 100000 nM	–	> 100000 nM	IC50 (Dihydrofolate reductase [8]): 200 nM; % inhibition (Pneumocystis carinii [9]): 74%; IC50 (Toxoplasma gondii [10]): 4700 nM; % inhibition (Pneumocystis carinii [7]): 65%
Cc1c(CNc2ccc(Cl)c(Cl)c2)cnc2nc(N)nc(N)c12	53 nM	320 nM	28600 nM	100 nM	22900 nM	7730 nM	28 nM	94500 nM	IC50 (Dihydrofolate reductase [12]): 860 nM
Cc1c(CN(C)c2cc(Cl)c(Cl)c(Cl)c2)cnc2nc(N)nc(N)c12	36.3 nM	105 nM	–	200 nM	–	–	38.1 nM	18200 nM	IC50 (Dihydrofolate reductase [12]): 36 nM
Cc1c(CN(C)c2ccc(Cl)c(Cl)c2)cnc2nc(N)nc(N)c12	42 nM	100 nM	5300 nM	10 nM	70200 nM	21200 nM	27 nM	9600 nM	IC50 (Dihydrofolate reductase [12]): 960 nM
COc1cc(Cc2cnc(N)nc2N)cc(OC)c1OC.Cc1cc(NS(=O)(=O)c2ccc(N)cc2)no1 [CO-TRIMOXAZOLE]	–	–	–	–	–	–	–	–	inhibition at 250 µg/mL (Pneumocystis carinii [13]): 84%
COc1cc(Cc2cnc(N)nc2N)cc(OC)c1OC [TRIMETHOPRIM]	–	–	–	–	–	–	–	–	inhibition at 50 µg/mL (Pneumocystis carinii [14]): 84%
COc1cc(NCc2ccc3nc(N)nc(N)c3c2C)cc(OC)c1OC [TRIMETREXATE]	–	–	–	–	–	–	–	–	IC50 (Lacticaseibacillus casei): 27 nM
